Laboratory results as given in US12168012B2, “NLRP3 inflammasome inhibitors” (Novartis AG, priority 2018, dated 2024).
Counter-ions that a name gives are not always drawn.

Experiments:
[1] = system: NF-kB-dependent TNF-α secretion; experiment: TNF-α secretion assay (counterscreen); assay type: cell-based; conditions: Homo sapiens; THP-1 cells, Pam3CSK4-stimulated, 3 hours, HTRF
In short: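 Undifferentiated THP-1 cells, rested overnight, given compound then stimulated with 1 μg/mL LPS or 100 ng/mL Pam3CSK4 for 3 hours. Supernatant TNF-α measured by HTRF; IC50 from four-parameter logistic fit of % inhibition versus concentration, with viability monitored.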

[2] = system: NLRP3 inflammasome; experiment: IL-1β secretion assay; assay type: cell-based; conditions: Homo sapiens, THP-1, 3 h, PMA-differentiated THP-1 cells, 15 μM nigericin, HTRF
In short: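 PMA-differentiated THP-1 cells stimulated with nigericin to trigger NLRP3-dependent IL-1β secretion, measured by HTRF after 3 h. Viability/pyroptosis monitored with PrestoBlue. IC50 from logistic fit of % inhibition vs concentration with Hill coefficient.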

Compound | IC50 [1] | IC50 [2]
CN1C[C@H](NC(=O)Cn2nc(C(C)(C)O)n3c(cc4sc(Cl)cc43)c2=O)CCC1=O [Ex 29, (R)-2-(2-Chloro-5-(2-hydroxypropan-2-yl)-8-oxothieno[2′,3′:4,5]pyrrolo[1,2-d][1,2,4]triazin-7(8H)-yl)-N-(1-methyl-6-oxopiperidin-3-yl)acetamide] | > 100000 nM | 35.7 nM
CC(C)c1nn(CC(=O)N[C@@H]2CCCOC2)c(=O)c2cc3sc(Cl)cc3n12 [Ex 59, (R)-2-(2-Chloro-5-isopropyl-8-oxothieno[2′,3′:4,5]pyrrolo[1,2-d][1,2,4]triazin-7(8H)-yl)-N-(tetrahydro-2H-pyran-3-yl)acetamide] | > 100000 nM | 201 nM
CC(C)c1nn(CC(=O)N[C@@H]2CCCN(CC3CC3)C2)c(=O)c2cc3sc(Cl)cc3n12 [Ex 134, (R)-2-(2-Chloro-5-isopropyl-8-oxothieno[2′,3′:4,5]pyrrolo[1,2-d][1,2,4]triazin-7(8H)-yl)-N-(1-(cyclopropylmethyl)piperidin-3-yl)acetamide] | > 100000 nM | 0.7 nM
Cc1nc2c(cc3c(=O)n(CC(=O)NC4CC4)nc(C(C)C)n32)s1 [Ex 96, N-Cyclopropyl-2-(5-isopropyl-2-methyl-8-oxothiazolo[5′,4′:4,5]pyrrolo[1,2-d][1,2,4]triazin-7(8H)-yl)acetamide] | > 33000 nM | 1040 nM
CC(C)c1nn(CC(=O)N[C@@H]2CCCN(CCF)C2)c(=O)c2cc3scnc3n12 [Ex 89, (R)-N-(1-(2-Fluoroethyl)piperidin-3-yl)-2-(5-isopropyl-8-oxothiazolo[5′,4′:4,5]pyrrolo[1,2-d][1,2,4]triazin-7(8H)-yl)acetamide] | > 100000 nM | 24.8 nM
CC(C)c1nn(CC(=O)NC23CCC(O)(CC2)CC3)c(=O)c2cc3sc(Cl)cc3n12 [Ex 76, 2-(2-Chloro-5-isopropyl-8-oxothieno[2′,3′:4,5]pyrrolo[1,2-d][1,2,4]triazin-7(8H)-yl)-N-(4-hydroxybicyclo[2.2.2]octan-1-yl)acetamide] | > 100000 nM | 45.1 nM
CC(C)c1nn(CC(=O)N[C@@H]2CCCN(C)C2)c(=O)c2cc3sc(F)cc3n12 [Ex 32, (R)-2-(2-Fluoro-5-isopropyl-8-oxothieno[2′,3′:4,5]pyrrolo[1,2-d][1,2,4]triazin-7(8H)-yl)-N-(1-methylpiperidin-3-yl)acetamide] | > 100000 nM | 7.6 nM
Cc1cc2c(cc3c(=O)n(CC(=O)N[C@@H]4CCCN(C)C4)nc(C(C)C)n32)s1 [Ex 40, (R)-2-(5-Isopropyl-2-methyl-8-oxothieno[2′,3′:4,5]pyrrolo[1,2-d][1,2,4]triazin-7(8H)-yl)-N-(1-methylpiperidin-3-yl)acetamide] | > 100000 nM | 56.3 nM
CC(C)c1nn(CC(=O)NC23CC4CC(CC(O)(C4)C2)C3)c(=O)c2cc3sc(Cl)cc3n12 [Ex 114, 2-(2-Chloro-5-isopropyl-8-oxothieno[2′,3′:4,5]pyrrolo[1,2-d][1,2,4]triazin-7(8H)-yl)-N-((1S,3R,5S)-3-hydroxyadamantan-1-yl)acetamide] | > 11000 nM | 298 nM
CC(C)c1nn(CC(=O)N[C@@H]2CCC[C@@H](O)C2)c(=O)c2cc3scnc3n12 [Ex 47, N-((1R,3R)-3-Hydroxycyclohexyl)-2-(5-isopropyl-8-oxothiazolo[5′,4′:4,5]pyrrolo[1,2-d][1,2,4]triazin-7(8H)-yl)acetamide] | > 100000 nM | 9.1 nM
CC(C)c1nn(CC(=O)Nc2ccc(F)cc2F)c(=O)c2cc3sc(Cl)cc3n12 [Ex 58, 2-(2-Chloro-5-isopropyl-8-oxothieno[2′,3′:4,5]pyrrolo[1,2-d][1,2,4]triazin-7(8H)-yl)-N-(2,4-difluorophenyl)acetamide] | > 100000 nM | 176 nM
Cc1nc2c(cc3c(=O)n(CC(=O)N[C@@H]4CCCNC4)nc(C(C)C)n32)s1 [Ex 50, (R)-2-(5-Isopropyl-2-methyl-8-oxothiazolo[5′,4′:4,5]pyrrolo[1,2-d][1,2,4]triazin-7(8H)-yl)-N-(piperidin-3-yl)acetamide] | > 100000 nM | 108 nM
CC(C)c1nn(CC(=O)NC2CC2)c(=O)c2cc3scnc3n12 [Ex 51, N-Cyclopropyl-2-(5-isopropyl-8-oxothiazolo[5′,4′:4,5]pyrrolo[1,2-d][1,2,4]triazin-7(8H)-yl)acetamide] | > 100000 nM | 138 nM
CC(C)c1nn(CC(=O)NC2CC3(COC3)C2)c(=O)c2cc3sc(Cl)cc3n12 [Ex 24, 2-(2-Chloro-5-isopropyl-8-oxothieno[2′,3′:4,5]pyrrolo[1,2-d][1,2,4]triazin-7(8H)-yl)-N-(2-oxaspiro[3.3]heptan-6-yl)acetamide] | > 100000 nM | 39.5 nM
Cc1cc2c(cc3c(=O)n(CC(=O)N[C@@H]4CCCNC4)nc(C(C)C)n32)s1 [Ex 38, (R)-2-(5-Isopropyl-2-methyl-8-oxothieno[2′,3′:4,5]pyrrolo[1,2-d][1,2,4]triazin-7(8H)-yl)-N-(piperidin-3-yl)acetamide] | > 100000 nM | 88 nM
CC(O)c1nn(CC(=O)N[C@@H]2CCCNC2)c(=O)c2cc3sc(Cl)cc3n12 (stereo partly drawn) [Ex 43, 2-(2-Chloro-5-(1-hydroxyethyl)-8-oxothieno[2′,3′:4,5]pyrrolo[1,2-d][1,2,4]triazin-7(8H)-yl)-N-((R)-piperidin-3-yl)acetamide hydrochloride] | > 100000 nM | 2050 nM
Cc1cc2c(cc3c(=O)n(CC(=O)N[C@@H]4CCC(=O)NC4)nc(C(C)C)n32)s1 [Ex 39, (R)-2-(5-Isopropyl-2-methyl-8-oxothieno[2′,3′:4,5]pyrrolo[1,2-d][1,2,4]triazin-7(8H)-yl)-N-(6-oxopiperidin-3-yl)acetamide] | > 100000 nM | 540 nM
CC(C)c1nn(CC(=O)N[C@@H]2CCCN(CC3(O)CCC3)C2)c(=O)c2cc3sc(Cl)cc3n12 [Ex 131, (R)-2-(2-Chloro-5-isopropyl-8-oxothieno[2′,3′:4,5]pyrrolo[1,2-d][1,2,4]triazin-7(8H)-yl)-N-(1-((1-hydroxycyclobutyl)methyl)piperidin-3-yl)acetamide] | > 33000 nM | 17.9 nM
Cc1cc2c(cc3c(=O)n(CC(=O)NC4CC4)nc(C(C)C)n32)s1 [Ex 41, N-Cyclopropyl-2-(5-isopropyl-2-methyl-8-oxothieno[2′,3′:4,5]pyrrolo[1,2-d][1,2,4]triazin-7(8H)-yl)acetamide] | > 100000 nM | 1170 nM
CC(C)c1nn(CC(=O)N[C@@H]2CCCNC2)c(=O)c2cc3sc(F)cc3n12 [Ex 31, (R)-2-(2-Fluoro-5-isopropyl-8-oxothieno[2′,3′:4,5]pyrrolo[1,2-d][1,2,4]triazin-7(8H)-yl)-N-(piperidin-3-yl)acetamide hydrochloride] | > 100000 nM | 90.5 nM
CC(C)c1nn(CC(=O)N[C@H]2CC[C@@H](C(=O)O)CC2)c(=O)c2cc3sc(Cl)cc3n12 [Ex 54, (1s,4s)-4-(2-(2-Chloro-5-isopropyl-8-oxothieno[2′,3′:4,5]pyrrolo[1,2-d][1,2,4]triazin-7(8H)-yl)acetamido)cyclohexane-1-carboxylic acid] | > 100000 nM | 562 nM
CC(C)c1nn(CC(=O)N[C@H]2C[C@@](C)(O)C2)c(=O)c2cc3sc(Cl)cc3n12 [Ex 72, 2-(2-Chloro-5-isopropyl-8-oxothieno[2′,3′:4,5]pyrrolo[1,2-d][1,2,4]triazin-7(8H)-yl)-N-((1s,3s)-3-hydroxy-3-methylcyclobutyl)acetamide] | > 100000 nM | 0.4 nM
CC(C)(O)c1nn(CC(=O)Nc2ccncn2)c(=O)c2cc3sc(Cl)cc3n12 [Ex 9, 2-(2-Chloro-5-(2-hydroxypropan-2-yl)-8-oxothieno[2′,3′:4,5]pyrrolo[1,2-d][1,2,4]triazin-7(8H)-yl)-N-(pyrimidin-4-yl)acetamide] | > 100000 nM | 7.9 nM
CN1CCC[C@@H](NC(=O)Cn2nc(C3CC3)n3c(cc4sc(F)cc43)c2=O)C1 [Ex 35, (R)-2-(5-Cyclopropyl-2-fluoro-8-oxothieno[2′,3′:4,5]pyrrolo[1,2-d][1,2,4]triazin-7(8H)-yl)-N-(1-methylpiperidin-3-yl)acetamide] | 40000 nM | 48.1 nM
CC(C)c1nn(CC(=O)N[C@@H]2CCC(=O)NC2)c(=O)c2cc3sc(F)cc3n12 [Ex 33, (R)-2-(2-Fluoro-5-isopropyl-8-oxothieno[2′,3′:4,5]pyrrolo[1,2-d][1,2,4]triazin-7(8H)-yl)-N-(6-oxopiperidin-3-yl)acetamide] | > 100000 nM | 108 nM
CC(C)(O)c1nn(CC(=O)N[C@@H]2CCCNC2)c(=O)c2cc3sc(Cl)cc3n12 [Ex 79, (R)-2-(2-Chloro-5-(2-hydroxypropan-2-yl)-8-oxothieno[2′,3′:4,5]pyrrolo[1,2-d][1,2,4]triazin-7(8H)-yl)-N-(piperidin-3-yl)acetamide] | > 100000 nM | 244 nM
